Patent publication US4107424A, “1-N-[(S)-α-hydroxy-ω-aminoacyl] derivatives of 3',4'-dideoxykanamycin B and 3'-deoxykanamycin B antibiotics” (Zaidan Hojin Biseibutsu Kagaku Kenkyu Kai, priority 1972, dated 1978)
In brackets after ≈: the same amount, converted by molar mass. Like-named read-outs stand apart in the source and are kept apart here.

Columns and labels:
Escherichia coli K-12 = assay: Minimal inhibitory concentration, agar dilution streak method; format: cell-based; conditions: K12, nutrient agar, 37° C, 18 hours
Protocol: (§1) *Agar Agar dilution streak method (nutrient agar, 37° C, 18 hours)
(§2) *Agar dilution streak method (nutrient agar, 37° C, 18 hours).

[1] = test system: Staphylococcus aureus FDA 209P; assay: as above; format: cell-based; conditions: FDA209P, nutrient agar, 37° C, 18 hours
Protocol: as §1, §2

[2] = test system: Pseudomonas aeruginosa TI-13; assay: as above; format: cell-based; conditions: TI13, nutrient agar, 37° C, 18 hours
Protocol: as §1, §2

[3] = test system: Escherichia coli K-12 LA 290 R 55; assay: as above; format: cell-based; conditions: 18 h
Protocol: as §1, §2

[4] = test system: Escherichia coli K-12 ML 1630; assay: as above; format: cell-based; conditions: K12ML1630, nutrient agar, 37° C, 18 hours
Protocol: as §1, §2

[5] = test system: Escherichia coli K-12 JR 66/W 677; assay: as above; format: cell-based; conditions: Escherichia coli, 18 h
Protocol: as §1, §2

[6] = test system: Escherichia coli K-12 LA 290 R 64; assay: as above; format: cell-based; conditions: nutrient agar, 37° C, 18 hours
Protocol: as §1, §2

[7] = test system: Escherichia coli K-12 LA 290 R 56; assay: as above; format: cell-based; conditions: 18 h
Protocol: as §1, §2

[8] = test system: Escherichia coli K-12 ML 1410 R 81; assay: as above; format: cell-based; conditions: 18 h
Protocol: as §1, §2

[9] = test system: Klebsiella pneumoniae type 22 #3038; assay: as above; format: cell-based; conditions: Klebsiella pneumoniae; nutrient agar, 37° C, 18 hours
Protocol: as §1, §2

[10] = test system: Escherichia coli K-12 W 677; assay: as above; format: cell-based; conditions: K12W677, nutrient agar, 37° C, 18 hours
Protocol: as §1, §2

[11] = test system: Pseudomonas aeruginosa No.12; assay: as above; format: cell-based; conditions: nutrient agar, 37° C, 18 hours
Protocol: as §1, §2

[12] = test system: Pseudomonas aeruginosa A 3; assay: as above; format: cell-based; conditions: A3, nutrient agar, 37° C, 18 hours
Protocol: as §1, §2

[13] = test system: Escherichia coli K-12 ML 1629; assay: as above; format: cell-based; conditions: K12ML1629, nutrient agar, 37° C, 18 hours
Protocol: as §1, §2

[14] = test system: Escherichia coli K-12 ML 1410; assay: as above; format: cell-based; conditions: K12ML1410, nutrient agar, 37° C, 18 hours
Protocol: as §1, §2

[15] = test system: Pseudomonas aeruginosa GN 315; assay: as above; format: cell-based; conditions: GN315, nutrient agar, 37° C, 18 hours, read-out: Minimal inhibitory concentration
Protocol: as §1, §2

[16] = test system: Mycobacterium smegmatis ATCC 607; assay: as above; format: cell-based; conditions: Mycolicibacterium smegmatis, ATCC607; nutrient agar, 37° C, 48 hours; read-out: Minimal inhibitory concentration
phosphotransferase = conditions: phosphorylation of hydroxyl group; cited from earlier work
Salmonella typhosa T-63 = assay: Minimal inhibitory concentration, agar dilution streak method; format: cell-based; conditions: Salmonella enterica, nutrient agar, 37° C, 18 hours
Protocol: (§3) [α]D^22 + 38°, (c 0.85, water).
as §1, §2

[17] = test system: Pseudomonas aeruginosa 99; assay: as above; format: cell-based; conditions: nutrient agar, 37° C, 18 hours
Protocol: as §3, §1, §2

Escherichia coli NIHJ = assay: as above; format: cell-based; conditions: nutrient agar, 37° C, 18 hours
Protocol: as §3, §1, §2

Proteus rettgeri GN 311 = assay: as above; format: cell-based; conditions: Providencia rettgeri, GN311; nutrient agar, 37° C, 18 hours
Protocol: as §3, §1, §2

Sarcina lutea PCI 1001 = assay: as above; format: cell-based; conditions: Micrococcus luteus, PCI1001; nutrient agar, 37° C, 18 hours; read-out: Minimal inhibitory concentration
Protocol: as §3, §1, §2

[18] = test system: Escherichia coli K-12 C 600 R 135; assay: as above; format: cell-based; conditions: 18 h, read-out: Minimal inhibitory concentration
Protocol: as §3, §1, §2

[19] = test system: Escherichia coli J 5 R 11-2; assay: as above; format: cell-based; conditions: J5R112, 18 h, read-out: Minimal inhibitory concentration
Protocol: as §3, §1, §2

[20] = test system: Bacillus subtilis NRRL B-558; assay: as above; format: cell-based; conditions: NRRLB558, nutrient agar, 37° C, 18 hours
Protocol: as §3, §1, §2

[21] = test system: Klebsiella pneumoniae PCI 602; assay: as above; format: cell-based; conditions: PCI602, nutrient agar, 37° C, 18 hours
Protocol: as §3, §1, §2

[22] = test system: Escherichia coli K-12 R-5; assay: as above; format: cell-based; conditions: K12R5, nutrient agar, 37° C, 18 hours
Protocol: as §3, §1, §2

Proteus rettgeri GN 466 = assay: as above; format: cell-based; conditions: Providencia rettgeri, GN466; nutrient agar, 37° C, 18 hours
Protocol: as §3, §1, §2

[23] = test system: kanamycin-resistant strains; conditions: strains producing 3'-hydroxyl phosphorylating enzyme; cited from earlier work
nucleotidyl-transferase = conditions: adenylylation of 2"-hydroxyl group with ATP; cited from earlier work
[24] = read-out: Minimal inhibitory concentration
[25] = read-out: minimum inhibitory concentrations
[26] = drug-resistant strain, read-out: minimum inhibitory concentrations

NC[C@@H]1CC[C@@H](N)[C@@H](O[C@H]2[C@H](O[C@@H]3O[C@H](CO)[C@@H](O)[C@H]3O)[C@@H](O)[C@H](N)C[C@@H]2N)O1 [3',4'-dideoxyribostamycin] gave an MIC (Escherichia coli K-12; [24]) of 3.12 mg/L (≈ 7.38 µM), an MIC [1, 24] of 3.12 mg/L (≈ 7.38 µM) and an MIC [2, 24] of 25 mg/L (≈ 59.2 µM). For the same compound, the MIC [3, 24] was 3.12 mg/L (≈ 7.38 µM), the MIC [4, 24] was greater than 100 mg/L and the MIC [5, 24] was 6.25 mg/L (≈ 14.8 µM). It also gave an MIC [6, 24] of 3.12 mg/L (≈ 7.38 µM), an MIC [7, 24] of 1.56 mg/L (≈ 3.69 µM) and an MIC [8, 24] greater than 100 mg/L. For the same compound, the MIC [9] was 6.25 mg/L (≈ 14.8 µM), the MIC [10, 24] was 3.12 mg/L (≈ 7.38 µM) and the MIC [11, 24] was 12.5 mg/L (≈ 29.6 µM). It also gave an MIC [12, 24] of 6.25 mg/L (≈ 14.8 µM), an MIC [13, 24] greater than 100 mg/L and an MIC [14, 24] of 6.25 mg/L (≈ 14.8 µM). For the same compound, the MIC [15] was greater than 100 mg/L, the MIC [16] was 3.12 mg/L (≈ 7.38 µM) and the inactivation by phosphotransferase (phosphotransferase) was “inactivated by phosphorylating 5"-hydroxyl group”. For the same compound, the MIC (Salmonella typhosa T-63) was 1.56 mg/L (≈ 3.69 µM), the MIC [17, 24] was 50 mg/L (≈ 118 µM) and the MIC (Escherichia coli NIHJ) was 6.25 mg/L (≈ 14.8 µM). The MIC (Proteus rettgeri GN 311) was 6.25 mg/L (≈ 14.8 µM), the MIC (Sarcina lutea PCI 1001) was greater than 100 mg/L and the MIC [18] was 3.12 mg/L (≈ 7.38 µM). The MIC [19] was 100 mg/L (≈ 237 µM), the MIC [20] was 1.56 mg/L (≈ 3.69 µM) and the MIC [21] was 3.12 mg/L (≈ 7.38 µM). It also gave an MIC [22] of 100 mg/L (≈ 237 µM) and an MIC (Proteus rettgeri GN 466) of 6.25 mg/L (≈ 14.8 µM).

Compound NC[C@@H]1CC[C@@H](N)[C@@H](O[C@H]2[C@H](O)[C@@H](O[C@H]3O[C@H](CO)[C@@H](O)[C@H](N)[C@H]3O)[C@H](N)C[C@@H]2N)O1 [DKB, 3',4'-dideoxykanamycin B] has an MIC (Escherichia coli K-12; [25]) of 1.56 mg/L (≈ 3.45 µM), an MIC [1, 25] of 1.56 mg/L (≈ 3.45 µM) and an MIC [2, 25] of 3.12 mg/L (≈ 6.91 µM). It also gave an MIC [3, 25] greater than 100 mg/L, an MIC [4, 25] of 3.12 mg/L (≈ 6.91 µM) and an MIC [5, 25] of 100 mg/L (≈ 221 µM). The MIC [6, 25] was 25 mg/L (≈ 55.4 µM), the MIC [7, 25] was 25 mg/L (≈ 55.4 µM) and the MIC [8, 25] was 3.12 mg/L (≈ 6.91 µM). The MIC [10, 25] was 1.56 mg/L (≈ 3.45 µM), the MIC [11, 25] was 3.12 mg/L (≈ 6.91 µM) and the MIC [12, 25] was 3.12 mg/L (≈ 6.91 µM). For the same compound, the MIC [13, 26] was 3.12 mg/L (≈ 6.91 µM), the MIC [14, 25] was 1.56 mg/L (≈ 3.45 µM) and the “activity against kanamycin-resistant strains” value [23] was “actually effective”. For the same compound, the MIC [17, 25] was 12.5 mg/L (≈ 27.7 µM) and the inactivation by nucleotidyl-transferase (nucleotidyl-transferase) was “inactivate”.

Work on NC[C@H]1O[C@H](O[C@H]2[C@H](O)[C@@H](O[C@H]3O[C@H](CO)[C@@H](O)[C@H](N)[C@H]3O)[C@H](N)C[C@@H]2N)[C@H](O)[C@@H](O)[C@@H]1O [Kanamycin, kanamycin] yielded an MIC (Escherichia coli K-12; [25]) of 0.78 mg/L (≈ 1.61 µM), an MIC [1, 25] of 3.12 mg/L (≈ 6.44 µM) and an MIC [2, 25] greater than 100 mg/L. For the same compound, the MIC [3, 25] was 100 mg/L (≈ 206 µM), the MIC [4, 25] was greater than 100 mg/L and the MIC [5, 25] was greater than 100 mg/L. It also gave an MIC [6, 25] of 12.5 mg/L (≈ 25.8 µM), an MIC [7, 25] of 12.5 mg/L (≈ 25.8 µM) and an MIC [8, 25] greater than 100 mg/L. The MIC [10, 25] was 1.56 mg/L (≈ 3.22 µM), the MIC [11, 25] was 50 mg/L (≈ 103 µM) and the MIC [12, 25] was greater than 100 mg/L. It also gave an MIC [13, 26] greater than 100 mg/L, an MIC [14, 25] of 1.56 mg/L (≈ 3.22 µM) and an MIC [17, 25] greater than 100 mg/L. For the same compound, the inactivation by nucleotidyl-transferase (nucleotidyl-transferase) was “inactivate”.
